Measurements taken from patent US20180230182A1, “HYPERPOLARIZATION OF AMINO ACID RESIDUES FOR PRODUCING HYPERPOLARIZED PEPTIDES” (Cedars-Sinai Medical Center, priority 2017, published 2018).

Assay: 13C hyperpolarization by Para Hydrogen Induced Polarization (PHIP) with Goldman RF transfer sequence
Type: physicochemical
Details: non-deuterated, natural abundance 13C
Excerpt: Our objective was to test a model system of polarization that can be incorporated into peptide sequence. Dehydroalanine is an unnatural amino acid with a methylene group instead of the normal methyl side chain for alanine. Several publications laid out the framework on synthesizing peptides containing this reactive amino acid side chain double bond. (Okeley N M, Zhu Y, van der Donk W A. Facile Chemoselective Synthesis of Dehydroalanine-Containing Peptides†. Organic Letters. 2000; 2(23):3603-6). The double bond of dehydroalanine is ideally positioned for PHIP to generate a polarized ^13C carboxyl nucleus with the resulting product an alanine amino acid residue. We utilized a purchased chemical equivalent resembling dehydroalanine in a peptide chain with the terminal carboxyl and amine protected by functional groups (FIG. 1). […] The 3JHH scalar coupling (J) constant was kept at 7.47 Hz, the 3JHH value was determined by proton spectroscopy. All measured samples were combined and lyophilized to dryness, then and dissolved in 2.5 mL of diH2O and scanned (^13C spectroscopy) for 17 hours with a repetition time of 50 seconds. […]

polarization reached with the best set of scalar coupling constants (13C carboxyl carbon of the alanine product after 3 second para-hydrogenation of 24 mM MAA in deuterium oxide, 1.4 mT PHIP instrument): 0.1±0.07%
maximum polarization from the best sequence (approximated from the Boltzmann thermal equilibrium signal, 13C spectroscopy at 9.4T): ~0.2%
Structure (SMILES): C=C(NC(C)=O)C(=O)OC [MAA, methyl 2-acetamidoacrylate]
